Like-named read-outs stand apart in the source and are kept apart here.
What was measured:
[1] = test system: ERBB2-positive patients with advanced or metastatic breast cancer
Procedure: Quantitative mRNA levels of the transcripts were measured relative to GAPDH using the branch capture (BC) assay from Panomics using RNA extracted from single 10 micrometer FFPE sections from each tumor. Adjacent H&E stained sections were analyzed for tumor content and samples with <50% tumor were excluded. Transcript levels measured using the Panomics BC assay were normalized to Affymetrix microarray equivalent levels using a mapping function developed using measurements of the transcript levels measured in 22 breast cancer cell lines using both platforms. These functions were then applied to Panomics BC transcript levels for tumor samples to obtain Affymetrix-equivalent transcript levels for each of the EERBB2, GRB7, CRK, ACOT9, CBX5, and DDX5 genes. The weights in the 6-gene predictive model for the tumors were the same as determined from cell lines.
EGF20009 was a randomized, first line phase II trial in ERBB2-positive patients with advanced or metastatic breast cancer in which patients received Lapatinib as monotherapy. 138 patients with ERBB2-amplified tumors were randomly assigned to one of two Lapatinib dose cohorts: 69 patients received Lapatinib 1,500 mg once daily, and the remaining 69 patients received Lapatinib 500 mg twice daily. Samples from patients treated at both levels of Lapatinib were included in the study and patients were stratified into three groups based on tumor ERBB2 mRNA expression levels measured using the Panomics BC assay. Patients with the highest ERBB2 expression levels were assigned to a group designated as sensitive, patients with the lowest ERBB2 expression levels were assigned to a group designated as resistant and the remaining patients were assigned to an intermediate group (n=53). Patients whose tumors assigned to the intermediate group were further stratified into resistant and sensitive classes by using the 6-gene predictor set and a single response predictor CBX5, respectively.

[2] = test system: ERBB2-positive tumors from human cancer patients; experiment: Progression free survival in a tumor panel stratified by the 6-gene computational model (Example 7); type: in vivo; conditions: sensitive if predicted log(GI50)≦0.4
Excerpt: The computational model described in Example 6 was applied to the mRNA expression levels obtained to predict the Lapatinib sensitivity status of the tumors. […] The progression free survival of those predicted responders (sensitive) were compared to the non-responders (resistant).

[3] = test system: breast cancer cell lines
[4] = test system: breast cancer cell lines; experiment: cells; conditions: Homo sapiens

CS(=O)(=O)CCNCc1ccc(-c2ccc3ncnc(Nc4ccc(OCc5cccc(F)c5)c(Cl)c4)c3c2)o1 [Lapatinib] was tested, and the “hazards ratio (HR), predicted sensitive vs predicted resistant patients” value ([1]; intermediate ERBB2 expression group (n=53), 6-gene predictor set) was 0.383, the “hazards ratio (HR), predicted sensitive vs predicted resistant patients” value ([1]; intermediate group, CBX5 single predictor) was 0.25 and the median survival ([1]; intermediate group, patients predicted to be resistant, CBX5 single predictor) was 61 days. The median survival ([1]; intermediate group, patients predicted to be sensitive, CBX5 single predictor) was 176 days, the response rate ([1]; patients predicted to be resistant, CBX5 single predictor) was 17% and the response rate ([1]; patients predicted to be sensitive, CBX5 single predictor) was 56%. The “median survival of predicted responders compared to non-responders” value [2] was “longer”, the “dynamic range of the GI50 response data” value ([3]; across 40 breast cancer cell lines) was > 3 logs and the Sensitivity ([3]; cell line AU565 found sensitive to Lapatinib) was “Yes”. The Sensitivity ([3]; cell line BT474 found sensitive to Lapatinib) was “Yes”, the Sensitivity ([3]; cell line HCC202 found sensitive to Lapatinib) was “Yes” and the Sensitivity ([3]; cell line HCC1569 found sensitive to Lapatinib) was “Yes”. For the same molecule, the Sensitivity ([3]; cell line HCC1954 found sensitive to Lapatinib) was “Yes”, the Sensitivity ([3]; cell line SKBR3 found sensitive to Lapatinib) was “Yes” and the Sensitivity ([3]; cell line SUM149PT found sensitive to Lapatinib) was “Yes”. For the same molecule, the Sensitivity ([3]; cell line UACC812 found sensitive to Lapatinib) was “Yes”, the GI50 ([4]; AU565, read-out: log10(GI50), cell line AU565 (converted), Training sample) was 0.0234 µM and the GI50 ([4]; BT-474, read-out: log10(GI50), cell line BT474 (converted), Training sample) was 0.03 µM. The GI50 ([4]; BT-483, read-out: log10(GI50), cell line BT483 (converted), Training sample) was 1.89 µM, the GI50 ([4]; BT-549, read-out: log10(GI50), cell line BT549 (converted), Training sample) was 25.1 µM and the GI50 ([4]; CAMA-1, read-out: log10(GI50), cell line CAMA1 (converted), Test sample) was 32.1 µM. The GI50 ([4]; HBL-100, read-out: log10(GI50), cell line HBL100 (converted), Training sample) was 6.33 µM, the GI50 ([4]; HCC38, read-out: log10(GI50), cell line HCC38 (converted), Training sample) was 5 µM and the GI50 ([4]; HCC70, read-out: log10(GI50), cell line HCC70 (converted), Test sample) was 0.5 µM. It also gave a GI50 ([4]; HCC202, read-out: log10(GI50), cell line HCC202 (converted), Test sample) of 0.015 µM, a GI50 ([4]; HCC1143, read-out: log10(GI50), cell line HCC1143 (converted), Training sample) of 3.04 µM and a GI50 ([4]; HCC1187, read-out: log10(GI50), cell line HCC1187 (converted), Test sample) of 7.35 µM. The GI50 ([4]; HCC1428, read-out: log10(GI50), cell line HCC1428 (converted), Test sample) was 10 µM, the GI50 ([4]; HCC1500, read-out: log10(GI50), cell line HCC1500 (converted), Training sample) was 1.6 µM and the GI50 ([4]; HCC1569, read-out: log10(GI50), cell line HCC1569 (converted), Training sample) was 0.1 µM. The GI50 ([4]; HCC1937, read-out: log10(GI50), cell line HCC1937 (converted), Training sample) was 3 µM, the GI50 ([4]; HCC1954, read-out: log10(GI50), cell line HCC1954 (converted), Training sample) was 0.3 µM and the GI50 ([4]; Hs-578T, read-out: log10(GI50), cell line HS578T (converted), Training sample) was 10 µM. The GI50 ([4]; MCF7, read-out: log10(GI50), cell line MCF7 (converted), Training sample) was 6 µM, the GI50 ([4]; MCF-10A, read-out: log10(GI50), cell line MCF10A (converted), Training sample) was 3 µM and the GI50 ([4]; MCF-12A, read-out: log10(GI50), cell line MCF12A (converted), Test sample) was 4 µM. For the same molecule, the GI50 ([4]; MDA-MB-157, read-out: log10(GI50), cell line MDAMB157 (converted), Training sample) was 10 µM, the GI50 ([4]; MDA-MB-231, read-out: log10(GI50), cell line MDAMB231 (converted), Training sample) was 10 µM and the GI50 ([4]; MDA-MB-361, read-out: log10(GI50), cell line MDAMB361 (converted), Training sample) was 1.2 µM. It also gave a GI50 ([4]; MDA-MB-435, read-out: log10(GI50), cell line MDAMB435 (converted), Training sample) of 10 µM, a GI50 ([4]; MDA-MB-436, read-out: log10(GI50), cell line MDAMB436 (converted), Training sample) of 30 µM and a GI50 ([4]; MDA-MB-453, read-out: log10(GI50), cell line MDAMB453 (converted), Training sample) of 3 µM. For the same molecule, the GI50 ([4]; MDA-MB-468, read-out: log10(GI50), cell line MDAMB468 (converted), Training sample) was 10 µM, the GI50 ([4]; SK-BR-3, read-out: log10(GI50), cell line SKBR3 (converted), Test sample) was 0.03 µM and the GI50 ([4]; SUM52PE, read-out: log10(GI50), cell line SUM52PE (converted), Training sample) was 15 µM. For the same molecule, the GI50 ([4]; SUM149PT, read-out: log10(GI50), cell line SUM149PT (converted), Training sample) was 0.3 µM, the GI50 ([4]; SUM185PE, read-out: log10(GI50), cell line SUM185PE (converted), Training sample) was 12 µM and the GI50 ([4]; SUM-159-PT, read-out: log10(GI50), cell line SUM159PT (converted), Training sample) was 3 µM. For the same molecule, the GI50 ([4]; T47D, read-out: log10(GI50), cell line T47D (converted), Test sample) was 25 µM, the GI50 ([4]; UACC-812, read-out: log10(GI50), cell line UACC812 (converted), Training sample) was 0.015 µM and the GI50 ([4]; ZR-75-1, read-out: log10(GI50), cell line ZR75.1 (converted), Test sample) was 20 µM. It also gave a GI50 ([4]; ZR-75B, read-out: log10(GI50), cell line ZR75B (converted), Test sample) of 8 µM, a GI50 ([4]; read-out: average log(GI50), training set of 30 breast cancer cell-lines (converted)) of 2.51 µM and a GI50 ([4]; read-out: log10(GI50), cell line 600MPE (converted), Training sample) of 8 µM. It also gave a GI50 ([4]; read-out: log10(GI50), cell line HCC2185 (converted), Training sample) of 8 µM, a GI50 ([4]; read-out: log10(GI50), cell line HCC3153 (converted), Training sample) of 10 µM and a GI50 ([4]; read-out: log10(GI50), cell line LY2 (converted), Training sample) of 8 µM.
